Paper PMC7743076 (bioRxiv, 2021)
Structures can show the parent of a compound that is named as a salt. Where two headings read alike, the source gives them in different places.

Columns and labels:
[1] = tested on: SARS-2-PV bearing spike from ancestral strain Wuhan-1, entry into 293T-ACE2-TMPRSS2 cells; format: cell-based, SARS-CoV-2; settings: for IC50: read-out: IC50, PV entry efficiency
[2] = cited from earlier work; for pKa: ref published literature and PubChem
[3] = tested on: SARS-CoV-2 (Wuhan-1) infection in Vero E6 cells; assay: Authentic SARS-CoV-2; format: cell-based; settings: preliminary dose ranging
[4] = tested on: authentic SARS-CoV-2 (Wuhan-1) in Vero E6-TMPRSS2 cells; format: cell-based
[5] = 120 mg/kg IP, mice; cited from earlier work
[6] = tested on: SARS-CoV-2 (isolate USA-WA1/2020 or Wuhan-1); set-up: species or system Syrian hamsters (Mesocricetus auratus); settings: hamster, in vivo
[7] = drug with two pKa values printed

NCCCNCCSP(=O)(O)O [Amifostine]
Inhibition of SARS-2-PV entry (in words) [1]: did not inhibit virus entry

CO[C@H]1O[C@H](CS)[C@H](O)[C@H](O)[C@H]1O [TDG, methyl 6-thio-6-deoxy-α-D-galactopyranoside]
reported pKa ([2]; TDG, thiol pKa, reported, reference not given): 9.6

NCCCNCCS [WR-1065]
IC50 [1]: ~1000 µM
Virus-induced cytopathic effects (in words) [3]: very effective at decreasing virus-induced cytopathic effects

CC(C)(S)C(=O)N[C@@H](CS)C(=O)O [Bucillamine]
pKa [2, 7]: 10.2
pKa ([2]; thiol pKa): 8.4

O=S(=O)(O)CCS [Mesna, 2-mercaptoethane sulfonate, sodium salt]
pKa ([2]; thiol pKa): > 9

N[C@@H](CSCC(=O)O)C(=O)O [Carbocysteine]
Inhibition of SARS-2-PV entry (in words) [1]: did not inhibit virus entry
Virus-induced cytopathic effects (in words) [4]: not effective

Cl.NCCS [cysteamine hydrochloride]
Peak plasma concentration [5]: 0.6 mM
Time of peak plasma concentration after administration [5]: ≤ 5 min

O=C(O)[C@@H](S)[C@@H](S)C(=O)O [Succimer, Dimercaptosuccinic acid]
pKa [2, 7]: 10.8
pKa ([2]; thiol pKa): 8.9

NCCS [Cysteamine]
IC50 [1]: ~1000 µM
Virus-induced cytopathic effects (in words) [3]: very effective at decreasing virus-induced cytopathic effects
pKa ([2]; thiol pKa): 8.2
Virus-induced cytopathic effects (in words) [4]: significantly decreased virus-induced cytopathic effects
Alveolar hemorrhage scores [6]: significantly lower than in the control group
Histopathology scores for mixed cell lung inflammation [6]: significantly lower than in the control group
Lung weights (normalized to terminal body weights) [6]: significantly lower than in the control group
Lymphocytes in BAL [6]: decreases
Neutrophils in BAL [6]: decreases
Total cell counts in BAL [6]: lower than in control treated animals
Total protein in BAL [6]: lower
Viral N2 gene transcripts in lung tissue [6]: not significantly lower than in controls
